From patent publication US20210254087A1, “METHODS FOR ENHANCING GENOME ENGINEERING EFFICIENCY” (KWS SAAT SE & CO. KGaA, priority 2018, published 2021) come the findings set out here.

Common to all, as to assay type: cell-based
For experiment [1], the system named is corn Hi II immature embryos. The experiment can be described thus: Co-delivery of 2,4-D with mNeonGreen construct pGEP362 by microprojectile bombardment, transient transformation. To be noted: 250 ng 2,4-D, 100 μg gold particles, 16 hours after bombardment, vs no 2,4-D. As for the experimental part:
Embryo isolation and microprojectile bombardment and post-bombardment handlings were performed using the same procedure as described in Example 1.
The amounts of 2,4-D used for a bombardment with 100 μg of gold particles (approximately, 4.0-5.0×10^7 0.6 μm gold particles) are in range of 1.0 ng to 1000 ng, preferred 10 ng to 500 ng. Plasmid DNA and 2,4-D co-coating onto gold particles for bombardment were conducted as described in Example 1. 2,4-D stock solution (e.g. 1 mg/ml) is prepared in 100% DMSO.

The test system of experiment [2] is corn Hi II type II callus. The experiment is described as above. Particulars: 125 ng, 250 ng, 500 ng 2,4-D vs 0 ng; 16 hours after bombardment. As for the experimental part: Type II callus culture and microprojectile bombardment and post-bombardment handlings were performed using the same procedure as described in Example 2.
The amounts of 2,4-D used for a bombardment with 100 μg of gold particles (approximately, 4.0-5.0×10^7 0.6 μm gold particles) are in range of 1.0 ng to 1000 ng, preferred 10 ng to 500 ng. Plasmid DNA and 2,4-D co-coating onto gold particles for bombardment were conducted as described in Example 6.

The next experiment relates to leaves of corn plants. Put plainly: Co-delivery of 2,4-D with tdTomato construct pGEP359 by microprojectile bombardment, transient transformation. Particulars: 250 ng 2,4-D, 20 hours after bombardment, vs without 2,4-D. As for the experimental part: Corn plants have grown in greenhouse. In stage V8 microprojectile bombardment was conducted using a Bio-Rad PDS-1000/He particle gun. The bombardment conditions are: 27-28 mm/Hg vacuum, 450 or 650 psi rupture disc, 6 mm gap distance. 20 hours after bombardment, transient transformation was examined using a fluorescence microscope for the tdTomato gene expression at excitation maximum 554 nm and emission maximum 581 nm. Plasmid DNA and 2,4-D co-coating onto gold particles for bombardment were conducted as described in Example 1. 2,4-D stock solution (e.g. 25 mg/ml in DMSO).

Experiment [3] relates to corn Hi II type II calluses. Put plainly: Co-delivery of 6-BA or zeatin with tdTomato construct pGEP359 by microprojectile bombardment, transient transformation. Particulars: 250 ng hormone, 100 μg gold particles, 16 hours after bombardment, vs no hormone. As for the experimental part:
The amounts of 6-BA or zeatin used for a bombardment with 100 μg of gold particles (approximately, 4.0-5.0×10^7 0.6 μm gold particles) are in range of 1.0 ng to 10000 ng, preferred 10 ng to 1000 ng.

Experiment [4] relates to corn Hi II immature embryos. The experiment can be described thus: Co-delivery of TSA with tdTomato construct pLH-Pat5077399-70Subi-tDt by microprojectile bombardment, transient transformation. As for the experimental part: Procedure: Prepare corn immature embryo for bombardment: 8-10 days post pollination, maize ears (i.e. A188 or Hi II) with immature embryos size 0.8 to 1.8 mm were harvested. The ears were sterilized with 70% ethanol for 10-15 minutes. After a brief air-dry in a laminar hood, remove top ˜⅓ of the kernels from the ears with a shark scalpel, and pull the immature embryos out of the kernels carefully with a spatula. The fresh isolated embryos were placed onto the bombardment target area in an osmotic medium plate (see below) with scutellum-side up. Wrap the plates with parafilm and incubated them at 25° C. in dark for 4-20 hours before bombardment.
The amounts of TSA used for a bombardment with 100 μg of gold particles (approximately, 4.0-5.0×10^7 0.6 micron gold particles) are in range of 0.01 ng to 500 ng, preferred 0.1 to 50 ng. Plasmid DNA and TSA co-coating onto gold particles for bombardment: For 10 shots, 1 mg of gold particle size 0.6 micron (μm) in 50% (v/v) glycerol (100 μg gold particles per shot) in a total volume of 100 microliter (μl) was pipetted into a clear low-retention microcentrifuge tube. Sonicate for 15 seconds to suspend the gold particles. While vortex at a low speed, add the following in order to each 100 μl of gold particles: • Up to 10 μl of DNA (1.0 μg total DNA, 100 ng per shot) • 100 μl of 2.5 M CaCl2) (pre-cold on ice) • 40 μl of 0.1 M cold spermidine
Close the lid and vortex the tube for 2-30 minutes at 0-10° C., and spin down the DNA-coated gold particles. After washing in 500 μl of 100% ethanol for two times, the pellet was resuspended in 120 μl of 100% ethanol. […]
Bombardment was conducted using a Bio-Rad PDS-1000/He particle gun. […] 16-48 hours after bombardment, transient transformation was examined using a fluorescence microscope for the tdTomato gene expression at excitation maximum 554 nm and emission maximum 581 nm. […]

Experiment [5] concerns corn Hi II type II calluses. The experiment can be described thus: Co-delivery of TSA with gene editing constructs pGEP359 and pGEP353, site-specific InDel rate by NGS. To be noted: 15 ng TSA vs no TSA, 13 days after co-bombardment. As for the experimental part: Type II callus culture and microprojectile bombardment and post-bombardment handlings were performed using the same procedure as described in Example 2. 2-15 days after bombardment, the calluses were harvested and used for genomic DNA isolation with a Plant DNA Isolation kit from Qiagen. NGS (next generation sequencing) was conducted by Illumina Miseq platform. InDel (insertion and deletion) rate was analyzed by means of CRISPResso.

Experiment [6] concerns corn Hi II immature embryos. Put plainly: Co-delivery of TSA with gene editing construct pGEP284, site-specific InDel rate by NGS. As for the experimental part:
Embryo isolation, microprojectile bombardment and post-bombardment handlings were performed using the same procedure as described in Example 1. Two days after bombardment, the embryos were harvested and used for genomic DNA isolation use Plant DNA Isolation kit from Qiagen (Venlo, Netherlands). NGS (next generation sequencing) was conducted by Miseq platform of Illumina Inc. (San Diego, Calif., USA). InDel (insertion and deletion) rate was analyzed by means of CRISPResso (http://crispresso.rocks/).

Experiment [7] relates to corn Hi II type II calluses. Put plainly: Co-delivery of TSA with tdTomato construct pGEP359 by microprojectile bombardment, transient transformation. To be noted: 15 ng TSA, 100 μg gold particles, 16 hours after bombardment, vs no TSA. As for the experimental part:
Type II callus induction and selection: Hi II immature embryos size 0.8-1.8 mm were isolated as described in Example 1, and were placed onto type II callus induction medium (see below) immediately with scutellum-side up, in a density of 10-15 embryo per plate (diameter of 100 mm). Wrap the plates with parafilm, and culture the embryos in plate at 27° C. in the dark until type II callus emerged (˜2 weeks). Pick friable type II calluses under a stereoscope, and move them onto type II callus selection medium (see below). Repeat this process for 2-3 more times, and trash the embryos 4 weeks after induction. Select pre-embryo stage of type II callus under a stereoscope carefully based on: friability (highly friable), morphology (no embryo-like structure), color (fresh, white, semi-transparent). Select and subculture type II callus every 1-2 week in callus selection medium (see below) until the callus lines stabilized (about 3-5 rounds of selection). Stable type II callus lines were cultured in type II callus subculture medium (see below) every 1 to 2 weeks.
Preparation of type II callus for bombardment: Select and transfer highly friable type II callus at pre-embryo stage onto the bombardment target region in an osmotic medium plate (see Example 1) (single layer, no overlapping). […]

Experiment [8] deals with sugar beet friable calluses. Put plainly: Co-delivery of TSA with pLH-Pat5077399-70Subi-tDt by microprojectile bombardment, transient transformation. To be noted: 15 ng TSA, 300 μg gold particles, 24 hours after bombardment, vs no TSA. As for the experimental part:
Sugar beet callus induction: young leaves from in vitro cultured sugar beet shoots in shoot culture medium (see below) were cut into small pieces (square, size 3-5 mm) in a laminar hood, and placed them onto callus induction medium (see below), in a density of 10-15 pieces per plate (diameter of 100 mm) with adaxial-side up. Wrap the plates with parafilm, and culture the leaf segments in plate at 23° C. in the dark for 6-8 weeks until callus emerged.
Preparation of sugar beet callus for bombardment: harvest friable fresh calluses under a stereoscope, and transfer them onto the bombardment target area in a sugar beet osmatic medium (see below) (single layer, no overlapping). Wrap the plates with parafilm and incubated at 25° C. in dark for 4-20 hours before bombardment.
Microprojectile bombardment and post-bombardment handlings were conducted using the same procedure descripted in Example 1, except for the amount of gold particles used for a bombardment was 300 μg.
Sugar beet shoot culture medium: MS, 0.25 mg/L of BAP, 30 g/L of sucrose, 8 g/I plant agar, pH 6.0
Sugar beet callus induction medium: MS, 2.0 mg/L of BAP, 15 g/L of sucrose, 8 g/I plant agar, pH 6.0
Sugar beet callus osmatic medium: MS, 2.0 mg/L of BAP, 15 g/L of sucrose, 0.2 M Mannitol (36.4 g/L), 0.2 M sorbitol (36.4 g/L), 8 g/I plant agar, pH 6.0

In the case of `O=C(O)COc1ccc(Cl)cc1Cl` [2,4-D, 2,4-Dichlorophenoxyacetic acid], the “increase in average number of green fluorescent cells per embryo” value in experiment [1] is 187%. The “increase of average number of green fluorescent cells per field” value in experiment [2] is on record as “at least 34.8%”. Besides, the “effect on transient transformation in corn leaves” value in the experiment with leaves of corn plants is given as “improved the transient transformation”.
In the case of `c1ccc(CNc2ncnc3nc[nH]c23)cc1` [6-BA, 6-Benzylaminopurine], in experiment [3], the “increase in average number of red fluorescent cells per field” value is reported as 35.8%.
With `CC(/C=C/C(=O)NO)=C\[C@@H](C)C(=O)c1ccc(N(C)C)cc1` [TSA, trichostatin A], the “increase of average number of red fluorescent cells (positively transient transformed cells) per embryo” value in experiment [4] (15 ng TSA, 100 μg gold particles 0.6 μm, 16 hours after bombardment, vs no TSA) amounted to 98.2%. The “effect of lower and higher TSA amounts on transient transformed cells” value in experiment [4] (15 ng and 45 ng TSA vs no TSA, 16 hours) is given as “significant increase of transient transformed cells”. For the same compound, in experiment [4] (no TSA, 15, 30, 45 ng TSA tested, 16 hours), the “TSA amount giving optimum of average number of fluorescent cells per field” value is on record as “around 30 ng”. In [5], the “increase of site-specific InDel rate, factor” value was found to be 6.75 and the “increase of site-specific InDel rate, percent” value is 575%. For the same compound, the “effect of lower and higher TSA amounts on InDel rates” value in experiment [6] (15 ng and 45 ng TSA compared to absence of TSA, 2 days) was “significant increase of InDel rates”. Besides, the “TSA amount giving optimum of rates of InDel events” value in [6] (no TSA, 15, 30, 45 ng TSA tested, 2 days after bombardment, pGEP284) is given as “around 30 ng”. Moreover, in [7], the “increase of average number of fluorescent cells per field” value is listed as 43.3%. In addition, in experiment [8], the “increase of average number of fluorescent cells per field” value was determined as 193.7%.
For the compound `C/C(=C\CNc1ncnc2[nH]cnc12)CO` [zeatin, Zeatin], the “increase in average number of red fluorescent cells per field” value in experiment [3] worked out at 31.2%.
